From patent US20250092017A1, “2-PIPERIDYL OR 2-PYRAZOLYL SUBSTITUTED PYRIMIDINE COMPOUND SERVING AS EGFR INHIBITOR” (SUZHOU PUHE BIOPHARMA CO., LTD., priority 2022, published 2025) come the findings set out here.

Holding throughout (assay type): biochemical
The target in one test is EGFR (wild-type) (Homo sapiens, UniProt P00533). Description: MSA (Mobility Shift Assay) kinase activity, EGFR wild type. As to conditions: read-out: EGFR wt/ IC50/nM. The protocol: (§1) The MSA (Mobility Shift Assay) method was used to detect the effects of small molecule inhibitors on the kinase activity of EGFR wild type and its mutants (EGFR^wt, EGFR-L858R, EGFR-L858R-T790M-C797S, EGFR-L858R-C797S).
(§2) 10 μL of kinase solution at 2.5 times the final concentration was added to the compound wells and positive control Max wells; 10 μL of 1x kinase buffer was added to the negative control Min wells. The mixture was centrifuged at 1000 rpm for 30 seconds, and the reaction plate was shaken to mix the solution well and then incubated at room temperature for 10 minutes. A mixed solution of ATP and kinase substrate at 5/3 times the final concentration was prepared in 1x kinase buffer. 15 μL of a mixed solution of ATP and substrate at 5/3 times the final concentration was added to initiate the reaction. The 384-well plate was centrifuged at 1000 rpm for 30 seconds, and shaken to mix the solution well and then incubated at room temperature for the corresponding time. 30 μL of stop detection solution was added to stop the kinase reaction, and the mixture was centrifuged at 1000 rpm for 30 seconds, and then to mixed well by shaking. The conversion rate was read using Caliper EZ Reader.
(§3) wherein: Conversion %_sample is the conversion rate reading of the sample; Conversion %_min is the mean of the negative control wells, representing the conversion rate reading of the wells without enzyme activity; Conversion %_max is the mean of the positive control wells, representing the conversion rate reading of the wells without compound inhibition.
(§4) The log (inhibitor) vs. response —Variable slope of the analysis software GraphPad Prism 5 was used to fit the dose-effect curve, where the log value of the concentration was used as the X-axis and the percentage inhibition rate was used as the Y-axis, to obtain the IC50 value of each compound on the enzyme activity.
(§5) The calculation formula is Y=Bottom+(Top-Bottom)/(1+10^((Log IC50−X)*Hill Slope))

Another test deals with EGFR (L858R) (Homo sapiens, UniProt P00533, L858R). The test can be described thus: MSA (Mobility Shift Assay) kinase activity, EGFR-L858R. The procedure:
as §1, §2, §3, §4, §5

The target of another test is EGFR (L858R/C797S) (Homo sapiens, UniProt P00533, C797S/L858R). The test can be described thus: MSA (Mobility Shift Assay) kinase activity, EGFR-L858R-C797S. The procedure:
as §1, §2, §3, §4, §5

The next test has as its target EGFR (L858R/T790M/C797S) (Homo sapiens, UniProt P00533, C797S/L858R/T790M). The test can be described thus: MSA (Mobility Shift Assay) kinase activity, EGFR-L858R-T790M-C797S. The procedure: as §1, §2, §3, §4, §5

Each structure is given as a SMILES string. A value given as a limit tells only on which side of the number the result lay.

EGFR (L858R/T790M/C797S), sequence (P00533 25-1210 T790M/C797S/L858R): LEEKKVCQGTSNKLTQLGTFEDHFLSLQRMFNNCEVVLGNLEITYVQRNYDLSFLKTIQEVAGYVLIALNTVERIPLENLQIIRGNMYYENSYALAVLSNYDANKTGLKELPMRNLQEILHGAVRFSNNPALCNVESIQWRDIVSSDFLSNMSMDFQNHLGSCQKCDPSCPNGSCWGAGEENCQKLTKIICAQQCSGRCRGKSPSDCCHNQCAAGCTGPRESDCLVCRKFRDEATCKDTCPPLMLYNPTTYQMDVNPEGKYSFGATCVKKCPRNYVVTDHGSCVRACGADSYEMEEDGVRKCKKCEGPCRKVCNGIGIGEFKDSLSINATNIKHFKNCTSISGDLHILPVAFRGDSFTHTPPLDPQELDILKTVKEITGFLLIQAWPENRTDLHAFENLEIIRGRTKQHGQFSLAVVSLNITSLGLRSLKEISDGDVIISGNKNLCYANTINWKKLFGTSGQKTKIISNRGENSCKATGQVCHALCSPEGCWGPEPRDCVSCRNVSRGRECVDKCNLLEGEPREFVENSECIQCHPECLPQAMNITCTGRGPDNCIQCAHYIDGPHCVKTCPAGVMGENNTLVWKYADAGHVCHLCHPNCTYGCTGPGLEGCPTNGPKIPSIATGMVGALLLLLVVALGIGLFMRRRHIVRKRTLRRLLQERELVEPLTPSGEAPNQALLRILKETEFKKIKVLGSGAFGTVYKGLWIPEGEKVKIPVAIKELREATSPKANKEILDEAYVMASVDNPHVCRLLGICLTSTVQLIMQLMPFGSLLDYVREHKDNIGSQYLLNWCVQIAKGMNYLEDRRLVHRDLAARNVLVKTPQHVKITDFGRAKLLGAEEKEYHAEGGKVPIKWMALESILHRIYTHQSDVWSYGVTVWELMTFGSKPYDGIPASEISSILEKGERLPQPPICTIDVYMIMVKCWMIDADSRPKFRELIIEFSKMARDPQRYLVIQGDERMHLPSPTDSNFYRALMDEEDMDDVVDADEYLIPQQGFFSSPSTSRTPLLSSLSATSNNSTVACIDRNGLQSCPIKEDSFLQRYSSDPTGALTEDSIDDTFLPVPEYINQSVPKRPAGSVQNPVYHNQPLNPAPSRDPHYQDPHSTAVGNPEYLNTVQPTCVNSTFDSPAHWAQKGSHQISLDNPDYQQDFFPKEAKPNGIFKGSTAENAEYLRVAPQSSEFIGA
EGFR (L858R), sequence (P00533 25-1210 L858R): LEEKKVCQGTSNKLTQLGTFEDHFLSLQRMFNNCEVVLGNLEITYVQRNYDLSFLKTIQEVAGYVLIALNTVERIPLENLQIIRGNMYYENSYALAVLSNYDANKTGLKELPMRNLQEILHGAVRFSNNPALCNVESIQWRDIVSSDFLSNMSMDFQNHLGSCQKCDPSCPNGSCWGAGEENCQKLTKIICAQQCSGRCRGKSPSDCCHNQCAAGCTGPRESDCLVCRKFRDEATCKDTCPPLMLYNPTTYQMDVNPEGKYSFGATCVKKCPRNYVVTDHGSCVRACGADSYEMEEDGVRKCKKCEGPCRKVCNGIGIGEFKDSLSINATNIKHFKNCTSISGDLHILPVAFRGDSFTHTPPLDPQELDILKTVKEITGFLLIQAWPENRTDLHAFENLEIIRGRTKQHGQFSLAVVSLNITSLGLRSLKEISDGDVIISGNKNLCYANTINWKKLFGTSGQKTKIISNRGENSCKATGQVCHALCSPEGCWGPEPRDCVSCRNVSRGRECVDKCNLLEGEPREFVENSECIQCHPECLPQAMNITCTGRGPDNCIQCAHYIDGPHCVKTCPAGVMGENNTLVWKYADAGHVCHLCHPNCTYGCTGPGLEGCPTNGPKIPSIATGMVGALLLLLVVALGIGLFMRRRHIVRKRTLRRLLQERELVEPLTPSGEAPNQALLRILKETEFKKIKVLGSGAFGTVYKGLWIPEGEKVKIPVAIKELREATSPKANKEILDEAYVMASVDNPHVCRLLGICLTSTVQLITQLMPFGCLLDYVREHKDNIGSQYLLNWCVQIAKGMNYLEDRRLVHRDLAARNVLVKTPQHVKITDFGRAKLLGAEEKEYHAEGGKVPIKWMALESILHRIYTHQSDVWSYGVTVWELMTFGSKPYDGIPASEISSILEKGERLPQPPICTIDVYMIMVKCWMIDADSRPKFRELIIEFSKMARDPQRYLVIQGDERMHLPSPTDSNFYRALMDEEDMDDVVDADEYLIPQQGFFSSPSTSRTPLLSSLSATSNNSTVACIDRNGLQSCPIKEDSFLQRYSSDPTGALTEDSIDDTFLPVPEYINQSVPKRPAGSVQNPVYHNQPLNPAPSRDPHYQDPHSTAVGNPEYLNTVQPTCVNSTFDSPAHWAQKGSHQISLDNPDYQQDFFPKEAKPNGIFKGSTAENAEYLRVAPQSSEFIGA
EGFR (wild-type), sequence (P00533 25-1210): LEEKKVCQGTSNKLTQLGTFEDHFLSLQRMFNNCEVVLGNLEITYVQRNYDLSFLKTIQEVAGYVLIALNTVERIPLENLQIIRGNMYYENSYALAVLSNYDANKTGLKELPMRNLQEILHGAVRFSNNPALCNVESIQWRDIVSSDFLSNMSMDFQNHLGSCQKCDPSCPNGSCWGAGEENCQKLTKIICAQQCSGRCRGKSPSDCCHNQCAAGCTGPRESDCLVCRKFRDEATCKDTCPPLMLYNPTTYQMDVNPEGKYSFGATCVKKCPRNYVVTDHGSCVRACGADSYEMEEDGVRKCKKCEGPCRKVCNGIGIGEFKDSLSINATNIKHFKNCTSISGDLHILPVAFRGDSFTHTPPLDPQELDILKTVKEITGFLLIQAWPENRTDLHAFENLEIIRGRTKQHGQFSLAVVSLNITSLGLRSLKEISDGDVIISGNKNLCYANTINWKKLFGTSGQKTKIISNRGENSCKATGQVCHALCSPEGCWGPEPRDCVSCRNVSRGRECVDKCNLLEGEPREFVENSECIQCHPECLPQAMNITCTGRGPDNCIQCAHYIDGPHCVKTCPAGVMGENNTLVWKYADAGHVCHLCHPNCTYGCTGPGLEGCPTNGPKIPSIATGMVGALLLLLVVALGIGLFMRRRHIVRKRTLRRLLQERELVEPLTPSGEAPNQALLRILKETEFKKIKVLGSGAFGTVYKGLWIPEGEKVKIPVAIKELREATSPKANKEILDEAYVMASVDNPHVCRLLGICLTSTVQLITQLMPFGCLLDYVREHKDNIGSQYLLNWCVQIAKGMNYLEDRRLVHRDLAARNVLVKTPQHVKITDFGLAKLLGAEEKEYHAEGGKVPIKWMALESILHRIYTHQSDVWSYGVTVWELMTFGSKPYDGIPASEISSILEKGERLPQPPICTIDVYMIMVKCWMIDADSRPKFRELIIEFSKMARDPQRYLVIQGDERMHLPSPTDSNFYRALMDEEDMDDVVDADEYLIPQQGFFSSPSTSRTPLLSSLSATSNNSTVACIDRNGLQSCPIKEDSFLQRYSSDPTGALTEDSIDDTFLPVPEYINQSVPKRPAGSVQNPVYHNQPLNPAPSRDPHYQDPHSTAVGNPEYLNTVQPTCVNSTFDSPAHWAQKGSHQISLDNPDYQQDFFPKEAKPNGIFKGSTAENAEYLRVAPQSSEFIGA
EGFR (L858R/C797S), sequence (P00533 25-1210 C797S/L858R): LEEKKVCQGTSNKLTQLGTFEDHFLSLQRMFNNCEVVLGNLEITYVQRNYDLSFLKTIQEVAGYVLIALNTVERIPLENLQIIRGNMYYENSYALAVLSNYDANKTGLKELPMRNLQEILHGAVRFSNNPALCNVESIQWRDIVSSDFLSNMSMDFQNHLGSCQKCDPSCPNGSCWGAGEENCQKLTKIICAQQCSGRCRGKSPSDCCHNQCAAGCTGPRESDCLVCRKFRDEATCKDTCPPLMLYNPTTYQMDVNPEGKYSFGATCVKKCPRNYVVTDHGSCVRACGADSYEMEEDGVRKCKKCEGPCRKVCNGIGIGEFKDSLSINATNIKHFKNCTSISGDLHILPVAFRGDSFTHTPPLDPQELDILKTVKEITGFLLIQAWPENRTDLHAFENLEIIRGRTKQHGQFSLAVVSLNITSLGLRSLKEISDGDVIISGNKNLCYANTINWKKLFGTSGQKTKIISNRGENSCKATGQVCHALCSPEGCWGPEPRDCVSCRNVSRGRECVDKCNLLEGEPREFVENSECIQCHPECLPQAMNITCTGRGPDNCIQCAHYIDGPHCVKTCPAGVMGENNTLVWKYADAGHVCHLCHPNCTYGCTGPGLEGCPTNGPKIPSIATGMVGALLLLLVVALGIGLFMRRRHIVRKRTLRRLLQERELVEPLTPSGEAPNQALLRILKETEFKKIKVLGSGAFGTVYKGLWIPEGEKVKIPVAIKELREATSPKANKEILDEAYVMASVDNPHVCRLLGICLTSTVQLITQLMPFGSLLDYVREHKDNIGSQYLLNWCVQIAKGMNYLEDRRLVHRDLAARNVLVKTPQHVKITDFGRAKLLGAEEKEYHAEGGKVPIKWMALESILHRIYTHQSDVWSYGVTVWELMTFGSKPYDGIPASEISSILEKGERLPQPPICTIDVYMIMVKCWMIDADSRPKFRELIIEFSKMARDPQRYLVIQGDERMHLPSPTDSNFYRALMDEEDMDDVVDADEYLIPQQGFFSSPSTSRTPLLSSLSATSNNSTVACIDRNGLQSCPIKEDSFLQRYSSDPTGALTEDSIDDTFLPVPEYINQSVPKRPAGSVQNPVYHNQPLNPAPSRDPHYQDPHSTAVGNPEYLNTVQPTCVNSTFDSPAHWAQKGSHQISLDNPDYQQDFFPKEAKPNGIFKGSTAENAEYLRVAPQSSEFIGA

For the compound `CC(C)c1ccc(N2CC3(CC(S(C)(=O)=O)C3)C2)c2cnc(Nc3ccnc(N4CCC(O)CC4)n3)cc12` [Compound P4], the IC50 at EGFR (wild-type) was greater than 100 nM; on EGFR (L858R), 43.3 nM; at EGFR (L858R/C797S), greater than 100 nM; on EGFR (L858R/T790M/C797S), 4.6 nM.
Regarding `CC(C)c1cc(C(F)(F)F)c(N2CC3(CC(CS(C)(=O)=O)C3)C2)c2cnc(Nc3ccnc(N4CCC(O)C(F)C4)n3)cc12` (centres unmarked) [Compound P5], the IC50 at EGFR (wild-type) is greater than 100 nM; on EGFR (L858R), greater than 100 nM; at EGFR (L858R/C797S) it was greater than 100 nM; at EGFR (L858R/T790M/C797S), 7.1 nM.
For `CC(C)c1ccc(N2CC(NS(C)(=O)=O)C2)c2cnc(Nc3ccnc(N4CCC(O)CC4)c3)nc12` [Compound P6], the IC50 at EGFR (wild-type) is greater than 100 nM; at EGFR (L858R) it was 45.2 nM; at EGFR (L858R/C797S), 89.8 nM; at EGFR (L858R/T790M/C797S), 6.1 nM.
Taken in the same sequence, the figures for `CC(C)c1ccc(N2CC(CS(C)(=O)=O)C2(C)C)c2cnc(Nc3ccnc(N4CCC(O)C(F)C4)n3)cc12` (centres unmarked) [Compound P8] were greater than 100 nM, 67.8 nM, 83.3 nM and 0.97 nM.
For `CC(C)c1ccc(N2CC(CP(C)(C)=O)C2)c2cnc(Nc3ccnc(N4CCC(O)C(F)C4)n3)cc12` (centres unmarked) [Compound P9], the IC50 on EGFR (wild-type) was greater than 100 nM; on EGFR (L858R), greater than 100 nM; at EGFR (L858R/C797S) it was greater than 100 nM; at EGFR (L858R/T790M/C797S), 3.4 nM.
Regarding `CC(C)c1ccc(N2CC(NC(=O)N(C)C)C2)c2cnc(Nc3ccnc(N4CCC(O)C(F)C4)n3)cc12` (centres unmarked) [Compound P10], the IC50 on EGFR (wild-type) is greater than 100 nM; on EGFR (L858R), 43.2 nM; on EGFR (L858R/C797S) it was 41 nM; on EGFR (L858R/T790M/C797S), 0.56 nM.
Taken in the same sequence, the figures for `CC(C)c1ccc(N2CC3(C2)CN(S(C)(=O)=O)C3)c2cnc(Nc3ccnc(N4CCC(O)C(F)C4)n3)cc12` (centres unmarked) [Compound P11] were greater than 100 nM, greater than 100 nM, greater than 100 nM and 4.8 nM.
Consider `CC(C)c1ccc(N2CC(c3cccnc3)C2)c2cnc(Nc3ccnc(N4CCC(O)C(F)C4)n3)cc12` (centres unmarked) [Compound P12], for which the IC50 at EGFR (wild-type) is greater than 100 nM; on EGFR (L858R), greater than 100 nM; on EGFR (L858R/C797S), greater than 100 nM; on EGFR (L858R/T790M/C797S), 1.9 nM.
With `CC(C)n1c(=O)cc(N2CC(CS(C)(=O)=O)C2)c2cnc(Nc3ccnc(N4CCC(O)CC4)n3)cc21` [Compound P13], the IC50 on EGFR (wild-type) is greater than 100 nM; at EGFR (L858R), 31.2 nM; at EGFR (L858R/C797S), 34.5 nM; on EGFR (L858R/T790M/C797S), 1 nM.
As to `CC(C)n1c(=O)cc(N2CC(CS(C)(=O)=O)C2)c2cnc(Nc3ccnc(N4CCC(O)C(F)C4)n3)cc21` (centres unmarked) [Compound P14], the IC50 at EGFR (wild-type) amounted to 80.7 nM; on EGFR (L858R), 9.5 nM; on EGFR (L858R/C797S), 11.8 nM; on EGFR (L858R/T790M/C797S), 0.12 nM.
Turning to `CNC(=O)CN1CC(c2ccc(C(C)C)c3cc(Nc4ccnc(N5CCC(O)C(F)C5)n4)ncc23)C1` (centres unmarked) [Compound P15], the IC50 on EGFR (wild-type) is greater than 100 nM; on EGFR (L858R), 98.9 nM; on EGFR (L858R/C797S), greater than 100 nM; at EGFR (L858R/T790M/C797S) it was 1.7 nM.
`CC(C)c1ccc(N2CC(C[S+](C)[O-])C2)c2cnc(Nc3ccnc(N4CCC(O)C(F)C4)n3)cc12` (centres unmarked) [Compound P17]: the IC50 was greater than 100 nM at EGFR (wild-type), 73.4 nM on EGFR (L858R), greater than 100 nM at EGFR (L858R/C797S) and 1.6 nM on EGFR (L858R/T790M/C797S).
Regarding `CC(C)n1c(=O)nc(N2CC(CS(C)(=O)=O)C2)c2cnc(Nc3ccnc(N4CCC(O)C(F)C4)n3)cc21` (centres unmarked) [Compound P19], the IC50 at EGFR (wild-type) is greater than 100 nM; on EGFR (L858R), greater than 100 nM; on EGFR (L858R/C797S), greater than 100 nM; on EGFR (L858R/T790M/C797S), 3.4 nM.
For `CNC(=O)CC1CN(c2ccc(C(C)C)c3cc(Nc4ccnc(N5CCC(O)C(F)C5)n4)ncc23)C1` (centres unmarked) [Compound P20], the IC50 came to 90.9 nM at EGFR (wild-type), 20.5 nM on EGFR (L858R), 43.1 nM at EGFR (L858R/C797S) and 0.42 nM at EGFR (L858R/T790M/C797S).
